Converted amounts (≈) assume the structure as drawn.
test system: S. aureus 29213; assay: Bacterial growth minimal inhibitory concentrations (microdilution, cation-adjusted Mueller-Hinton Broth, CLSI M7-A7); format: cell-based; settings: Staphylococcus aureus, 29213; microdilution in cation-adjusted Mueller-Hinton Broth
Description: Bacterial Growth Minimal Inhibitory Concentrations: Minimal inhibitory concentrations (MICs; mg/l) were determined in cation-adjusted MuellerHinton Broth by a microdilution method following the description given in “Methods for Dilution Antimicrobial Susceptibility Tests for Bacteria that Grow Aerobically”, Approved standard, 7th ed., Clinical and Laboratory Standards Institute (CLSI) Document M7-A7, Wayne, Pa., USA, 2006. Typical antibacterial test results are given in Table 1 hereafter (MIC in mg/l).

Compound	MIC [µg/mL]
O=C1CSc2ccc(N3C[C@@H](CNCCn4c(=O)[nH]c5ccccc5c4=O)OC3=O)nc2N1 [Example 53, 3-(2-{[(R)-2-oxo-3-(3-oxo-3,4-dihydro-2H-pyrido[3,2-b][1,4]thiazin-6-yl)-oxazolidin-5-ylmethyl]-amino}-ethyl)-1H-quinazoline-2,4-dione]	0.5 (≈ 1.07 µM)
O=C1CSc2ccc(N3C[C@@H](CCCn4c(=O)[nH]c5ccc(Cl)cc5c4=O)OC3=O)cc2N1 [Example 25, 6-chloro-3-{3-[(R)-2-oxo-3-(3-oxo-3,4-dihydro-2H-benzo[1,4]-thiazin-6-yl)-oxazolidin-5-yl]-propyl}-1H-quinazoline-2,4-dione]	0.063 (≈ 0.129 µM)
Cc1ccc2[nH]c(=O)n(CCC[C@@H]3CN(c4ccc5c(c4)NC(=O)CS5)C(=O)O3)c(=O)c2c1 [Example 10, 6-methyl-3-{3-[(R)-2-oxo-3-(3-oxo-3,4-dihydro-2H-benzo[1,4]thiazin-6-yl)-oxazolidin-5-yl]-propyl}-1H-quinazoline-2,4-dione]	0.063 (≈ 0.135 µM)
COc1cccc2[nH]c(=O)n(CCC[C@@H]3CN(c4ccc5c(c4)NC(=O)CS5)C(=O)O3)c(=O)c12 [Example 33, 5-methoxy-3-{3-[(R)-2-oxo-3-(3-oxo-3,4-dihydro-2H-benzo[1,4]-thiazin-6-yl)-oxazolidin-5-yl]-propyl}-1H-quinazoline-2,4-dione]	0.125 (≈ 0.259 µM)
O=C1CSc2ccc(N3C[C@@H](CNCCn4c(=O)[nH]c5ccccc5c4=O)OC3=O)cc2N1 [Example 54, 3-(2-{[(R)-2-oxo-3-(3-oxo-3,4-dihydro-2H-benzo[1,4]thiazin-6-yl)-oxazolidin-5-ylmethyl]-amino}-ethyl)-1H-quinazoline-2,4-dione]	1 (≈ 2.14 µM)
COc1cc2[nH]c(=O)n(CCC[C@@H]3CN(c4ccc5c(c4)NC(=O)CS5)C(=O)O3)c(=O)c2cc1OC [Example 39, 6,7-dimethoxy-3-{3-[(R)-2-oxo-3-(3-oxo-3,4-dihydro-2H-benzo[1,4]thiazin-6-yl)-oxazolidin-5-yl]-propyl}-1H-quinazoline-2,4-dione]	0.25 (≈ 0.488 µM)
Cn1c(=O)n(CC(O)CC[C@@H]2CN(c3ccc4c(n3)NC(=O)CS4)C(=O)O2)c(=O)c2ccccc21 (mixture of isomers) [Example 50, 3-{(RS)-2-hydroxy-4-[(R)-2-oxo-3-(3-oxo-3,4-dihydro-2H-pyrido[3,2-b][1,4]thiazin-6-yl)-oxazolidin-5-yl]-butyl}-1-methyl-1H-quinazoline-2,4-dione]	0.125
Cc1cccc2c(=O)n(CCNC[C@@H]3CN(c4ccc5c(c4)NC(=O)CS5)C(=O)O3)c(=O)[nH]c12 [Example 60, 8-methyl-3-(2-{[(R)-2-oxo-3-(3-oxo-3,4-dihydro-2H-benzo[1,4]thiazin-6-yl)-oxazolidin-5-ylmethyl]-amino}-ethyl)-1H-quinazoline-2,4-dione]	0.25 (≈ 0.519 µM)
O=C1CSc2ccc(N3C[C@@H](CCCn4c(=O)c5cccc6c5n(c4=O)CCC6)OC3=O)cc2N1 [Example 41, 2-{3-[(R)-2-oxo-3-(3-oxo-3,4-dihydro-2H-benzo[1,4]thiazin-6-yl)-oxazolidin-5-yl]-propyl}-6,7-dihydro-5H-pyrido[3,2,1-ij]quinazoline-1,3-dione]	0.25 (≈ 0.508 µM)
Cc1cccc2[nH]c(=O)n(CCNC[C@@H]3CN(c4ccc5c(c4)NC(=O)CS5)C(=O)O3)c(=O)c12 [Example 59, 5-methyl-3-(2-{[(R)-2-oxo-3-(3-oxo-3,4-dihydro-2H-benzo[1,4]thiazin-6-yl)-oxazolidin-5-ylmethyl]-amino}-ethyl)-1H-quinazoline-2,4-dione]	0.25 (≈ 0.519 µM)
CC(=O)N(CCn1c(=O)c2ccccc2n(C)c1=O)C[C@@H]1CN(c2ccc3c(n2)NC(=O)CS3)C(=O)O1 [Example 68, N-[2-(1-methyl-2,4-dioxo-1,4-dihydro-2H-quinazolin-3-yl)-ethyl]-N-[(R)-2-oxo-3-(3-oxo-3,4-dihydro-2H-pyrido[3,2-b][1,4]thiazin-6-yl)-oxazolidin-5-ylmethyl]-acetamide]	0.25 (≈ 0.477 µM)
Cn1c(=O)n(CCNCC[C@@H]2CN(c3ccc4c(c3)NC(=O)CS4)C(=O)O2)c(=O)c2cccc(Cl)c21 [Example 30, 8-chloro-1-methyl-3-(2-{2-[(R)-2-oxo-3-(3-oxo-3,4-dihydro-2H-benzo[1,4]thiazin-6-yl)-oxazolidin-5-yl]-ethylamino}-ethyl)-1H-quinazoline-2,4-dione]	0.125 (≈ 0.236 µM)
C=Cc1ccc2c(=O)n(CCC[C@@H]3CN(c4ccc5c(c4)NC(=O)CS5)C(=O)O3)c(=O)n(C)c2c1 [Example 47, 1-methyl-3-{3-[(R)-2-oxo-3-(3-oxo-3,4-dihydro-2H-benzo[1,4]-thiazin-6-yl)-oxazolidin-5-yl]-propyl}-7-vinyl-1H-quinazoline-2,4-dione]	0.063 (≈ 0.128 µM)

The remaining lines, values ahead:

MIC [µg/mL]	Compound
0.031 (≈ 0.0659 µM)	O=C1CSc2ccc(N3C[C@@H](CCCn4c(=O)[nH]c5ccc(F)cc5c4=O)OC3=O)cc2N1 [Example 26, 6-fluoro-3-{3-[(R)-2-oxo-3-(3-oxo-3,4-dihydro-2H-benzo[1,4]thiazin-6-yl)-oxazolidin-5-yl]-propyl}-1H-quinazoline-2,4-dione]
≤ 0.016	O=C1CSc2ccc(N3C[C@H](CCCn4c(=O)[nH]c5c(Cl)ccc(Cl)c5c4=O)OC3=O)cc2N1 [Example 40, 5,8-dichloro-3-{3-[(S)-2-oxo-3-(3-oxo-3,4-dihydro-2H-benzo[1,4]thiazin-6-yl)-oxazolidin-5-yl]-propyl}-1H-quinazoline-2,4-dione]
≤ 0.016	O=C1CSc2ccc(N3C[C@H](CCCn4c(=O)c5cccc6c5n(c4=O)CCC6)OC3=O)cc2N1 [Example 44, 2-{3-[(S)-2-oxo-3-(3-oxo-3,4-dihydro-2H-benzo[1,4]thiazin-6-yl)-oxazolidin-5-yl]-propyl}-6,7-dihydro-5H-pyrido[3,2,1-ij]quinazoline-1,3-dione]
≤ 0.016	Cc1cccc2c(=O)n(CCC[C@@H]3CN(c4ccc5c(c4)NC(=O)CS5)C(=O)O3)c(=O)[nH]c12 [Example 12, 8-methyl-3-{3-[(R)-2-oxo-3-(3-oxo-3,4-dihydro-2H-benzo[1,4]-thiazin-6-yl)-oxazolidin-5-yl]-propyl}-1H-quinazoline-2,4-dione]
≤ 0.016	O=C1CSc2ccc(N3C[C@@H](CCCn4c(=O)[nH]c5c(Cl)cccc5c4=O)OC3=O)cc2N1 [Example 21, 8-chloro-3-{3-[(R)-2-oxo-3-(3-oxo-3,4-dihydro-2H-benzo[1,4]thiazin-6-yl)-oxazolidin-5-yl]-propyl}-1H-quinazoline-2,4-dione]
0.063 (≈ 0.129 µM)	O=C1CSc2ccc(N3C[C@@H](CCCn4c(=O)[nH]c5cc(F)c(F)cc5c4=O)OC3=O)cc2N1 [Example 38, 6,7-difluoro-3-{3-[(R)-2-oxo-3-(3-oxo-3,4-dihydro-2H-benzo[1,4]thiazin-6-yl)-oxazolidin-5-yl]-propyl}-1H-quinazoline-2,4-dione]
≤ 0.016	Cc1cccc2[nH]c(=O)n(CCC[C@H]3CN(c4ccc5c(n4)NC(=O)CS5)C(=O)O3)c(=O)c12 [Example 8, 5-methyl-3-{3-[(S)-2-oxo-3-(3-oxo-3,4-dihydro-2H-pyrido[3,2-b][1,4]thiazin-6-yl)-oxazolidin-5-yl]-propyl}-1H-quinazoline-2,4-dione]
≤ 0.016	Cc1cccc2[nH]c(=O)n(CCC[C@@H]3CN(c4ccc5c(c4)NC(=O)CS5)C(=O)O3)c(=O)c12 [Example 5, 5-methyl-3-{3-[(R)-2-oxo-3-(3-oxo-3,4-dihydro-2H-benzo[1,4]-thiazin-6-yl)-oxazolidin-5-yl]-propyl}-1H-quinazoline-2,4-dione]
≤ 0.016	COc1c(F)c(F)cc2c(=O)n(CCC[C@H]3CN(c4ccc5c(c4)NC(=O)CS5)C(=O)O3)c(=O)n(C3CC3)c12 [Example 43, 1-cyclopropyl-6,7-difluoro-8-methoxy-3-{3-[(S)-2-oxo-3-(3-oxo-3,4-dihydro-2H-benzo[1,4]thiazin-6-yl)-oxazolidin-5-yl]-propyl}-1H-quinazoline-2,4-dione]
≤ 0.016	Cc1cccc2c1c(=O)n(CCNC[C@@H]1CN(c3ccc4c(c3)NC(=O)CS4)C(=O)O1)c(=O)n2C [Example 57, 1,5-dimethyl-3-(2-{[(R)-2-oxo-3-(3-oxo-3,4-dihydro-2H-benzo[1,4]thiazin-6-yl)-oxazolidin-5-ylmethyl]-amino}-ethyl)-1H-quinazoline-2,4-dione]
≤ 0.016	O=C1COc2ccc(N3C[C@H](CCCn4c(=O)[nH]c5c(Cl)cccc5c4=O)OC3=O)nc2N1 [Example 24, 8-chloro-3-{3-[(S)-2-oxo-3-(3-oxo-3,4-dihydro-2H-pyrido[3,2-b][1,4]oxazin-6-yl)-oxazolidin-5-yl]-propyl}-1H-quinazoline-2,4-dione]
0.031 (≈ 0.0642 µM)	COc1cccc2c(=O)n(CCC[C@@H]3CN(c4ccc5c(c4)NC(=O)CS5)C(=O)O3)c(=O)[nH]c12 [Example 36, 8-methoxy-3-{3-[(R)-2-oxo-3-(3-oxo-3,4-dihydro-2H-benzo[1,4]-thiazin-6-yl)-oxazolidin-5-yl]-propyl}-1H-quinazoline-2,4-dione]
≤ 0.016	Cn1c(=O)n(CCC[C@H]2CN(c3ccc4c(c3)NC(=O)CS4)C(=O)O2)c(=O)c2ccccc21 [Example 3, 1-methyl-3-{3-[(S)-2-oxo-3-(3-oxo-3,4-dihydro-2H-benzo[1,4]-thiazin-6-yl)-oxazolidin-5-yl]-propyl}-1H-quinazoline-2,4-dione]
≤ 0.016	Cn1c(=O)n(CCNC[C@H]2CN(c3ccc4c(n3)NC(=O)CS4)C(=O)O2)c(=O)c2cccc(Cl)c21 [Example 62, 8-chloro-1-methyl-3-(2-{[(S)-2-oxo-3-(3-oxo-3,4-dihydro-2H-pyrido[3,2-b][1,4]thiazin-6-yl)-oxazolidin-5-ylmethyl]-amino}-ethyl)-1H-quinazoline-2,4-dione]
0.031 (≈ 0.0617 µM)	O=C1CSc2ccc(N3C[C@H](CCCn4c(=O)[nH]c5cc6ccccc6cc5c4=O)OC3=O)cc2N1 [Example 42, 3-{3-[(S)-2-oxo-3-(3-oxo-3,4-dihydro-2H-benzo[1,4]-thiazin-6-yl)-oxazolidin-5-yl]-propyl}-1H-benzo[g]quinazoline-2,4-dione]

Source: US8916573B2, “Quinazoline-2,4-dione derivatives” (Actelion Pharmaceuticals Ltd., priority 2011, dated 2014)
